Laboratory results reported in article PMC7435722, “Apoferritin and Apoferritin-Capped Metal Nanoparticles Inhibit Arginine Kinase of Trypanosoma brucei” (Molecules, 2020).
Read-outs that look alike come from different tables or passages of the source.

Tested on: T1, arginine kinase of T. brucei (recombinant form)
T1 construct: gene AK1; recombinant, obtained from Rhodes University laboratory
Test: phosphate release, molybdate colorimetric […] nm, nonlinear Michaelis-Menten fit
Format: biochemical, Trypanosoma brucei
Settings: no inhibitor, Mg sulfate, 100 mM Tris-HCl pH 8.6, 30 °C

SMILES	Km (2 mM L-arginine fixed, ATP 0.1-0.5 mM, read-out: Km (ATP))	Km (0.5 mM ATP fixed, L-arginine 0.5-2.5 mM, read-out: Km (L-arginine))
Nc1ncnc2c1ncn2[C@@H]1O[C@H](COP(=O)(O)OP(=O)(O)OP(=O)(O)O)[C@@H](O)[C@H]1O [ATP]	5 µM	–
N=C(N)NCCC[C@H](N)C(=O)O [L-arginine]	–	21 ± 10 µM
